{"source": "patent US8119628B2", "about": "“Pyrrolidine fused indolobenzadiazepine HCV NS5B inhibitors” (Bristol-Myers Squibb Company, priority 2008, dated 2012)", "key": {"[1]": {"biological_target": "T1, HCV NS5B (Hepatitis C virus genotype 1b, UniProt Q9WMX2)", "T1 construct": "The protein was expressed with an 18 amino acid C-terminal truncation to enhance the solubility; made in house; host or cells: E. coli BL21(DE3)", "T1 sequence (Q9WMX2 2420-2992)": "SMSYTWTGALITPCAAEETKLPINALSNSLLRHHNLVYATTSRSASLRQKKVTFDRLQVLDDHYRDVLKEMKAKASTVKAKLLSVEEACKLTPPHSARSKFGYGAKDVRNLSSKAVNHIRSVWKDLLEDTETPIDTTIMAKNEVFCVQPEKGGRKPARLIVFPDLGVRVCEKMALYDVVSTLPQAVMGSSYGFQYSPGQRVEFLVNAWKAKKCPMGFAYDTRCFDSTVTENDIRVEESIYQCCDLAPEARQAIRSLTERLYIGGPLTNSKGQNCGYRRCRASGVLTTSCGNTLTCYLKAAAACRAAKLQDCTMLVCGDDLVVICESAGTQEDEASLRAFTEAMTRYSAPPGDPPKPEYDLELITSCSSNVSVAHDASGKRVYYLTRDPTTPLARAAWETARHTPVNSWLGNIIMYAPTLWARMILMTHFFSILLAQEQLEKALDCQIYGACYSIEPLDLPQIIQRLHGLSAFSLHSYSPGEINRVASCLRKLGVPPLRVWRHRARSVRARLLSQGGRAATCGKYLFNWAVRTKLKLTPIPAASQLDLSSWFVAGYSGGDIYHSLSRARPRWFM", "test": "Modified HCV NS5B RdRp enzyme assay (preincubation protocol)", "type": "biochemical", "conditions": "HCV NS5B RdRp genotype 1b", "procedure": "HCV NS5B RdRp cloning, expression, and purification. The cDNA encoding the NS5B protein of HCV, genotype 1b, was cloned into the pET21a expression vector. The protein was expressed with an 18 amino acid C-terminal truncation to enhance the solubility. The E. coli competent cell line BL21(DE3) was used for expression of the protein. Cultures were grown at 37° C. for ˜4 hours until the cultures reached an optical density of 2.0 at 600 nm. The cultures were cooled to 20° C. and induced with 1 mM IPTG. Fresh ampicillin was added to a final concentration of 50 μg/ml and the cells were grown overnight at 20° C.\nCell pellets (3 L) were lysed for purification to yield 15-24 […] of purified NS5B. The lysis buffer consisted of 20 mM Tris-HCl, pH 7.4, 500 mM NaCl, 0.5% triton X-100, 1 mM DTT, 1 mM EDTA, 20% glycerol, 0.5 mg/ml lysozyme, 10 mM MgCl2, 15 ug/ml deoxyribonuclease I, and Complete TM protease inhibitor tablets (Roche). After addition of the lysis buffer, frozen cell pellets were resuspended using a tissue homogenizer. To reduce the viscosity of the sample, aliquots of the lysate were sonicated on ice using a microtip attached to a Branson sonicator. The sonicated lysate was centrifuged at 100,000×g for 1 hr at 4° C. and filtered through a 0.2 μm filter unit (Corning).\nThe protein was purified using three sequential chromatography steps: Heparin sepharose CL-6B, polyU sepharose 4B, and Hitrap SP sepharose (Pharmacia). The chromatography buffers were identical to the lysis buffer but contained no lysozyme, deoxyribonuclease I, MgCl2 or protease inhibitor and the NaCl concentration of the buffer was adjusted according to the requirements for charging the protein onto the column. Each column was eluted with a NaCl gradient which varied in length from 5-50 column volumes depending on the column type. After the final chromatography step, the resulting purity of the enzyme is >90% based on SDS-PAGE analysis. The enzyme was aliquoted and stored at −80° C.\nStandard HCV NS5B RdRp enzyme assay. HCV RdRp genotype 1b assays were run in a final volume of 60 μl in 96 well plates (Costar 3912). The assay buffer is composed of 20 mM Hepes, pH 7.5, 2.5 mM KCl, 2.5 mM MgCl2, 1 mM DTT, 1.6 U RNAse inhibitor (Promega N2515), 0.1 mg/ml BSA (Promega R3961), and 2% glycerol. All compounds were serially diluted (3-fold) in DMSO and diluted further in water such that the final concentration of DMSO in the assay was 2%. HCV RdRp genotype 1b enzyme was used at a final concentration of 28 nM. A polyA template was used at 6 nM, and a biotinylated oligo-dT12 primer was used at 180 nM final concentration. Template was obtained commercially (Amersham 27-4110). Biotinylated primer was prepared by Sigma Genosys. 3H-UTP was used at 0.6 μCi (0.29 μM total UTP). Reactions were initiated by the addition of enzyme, incubated at 30° C. for 60 min, and stopped by adding 25 μl of 50 mM EDTA containing SPA beads (4 μg/μl, Amersham RPNQ 0007). Plates were read on a Packard Top Count NXT after >1 hr incubation at room temperature.\nModified HCV NS5B RdRp enzyme assay. A modified enzyme assay was performed essentially as described for the standard enzyme assay except for the following: The biotinylated oligo dTl2 primer was precaptured on streptavidin-coated SPA beads by mixing primer and beads in assay buffer and incubating at room temperature for one hour. Unbound primer was removed after centrifugation. The primer-bound beads were resuspended in 20 mM Hepes buffer, pH 7.5 and used in the assay at final concentrations of 20 nM primer and […] beads. Order of addition in the assay: enzyme (14 nM) was added to diluted compound followed by the addition of a mixture of template (0.2 nM), 3H-UTP (0.6 μCi, 0.29 μM), and primer-bound beads, to initiate the reaction; concentrations given are final. Reactions were allowed to proceed for 4 hours at 30° C.\nIC50 values for compounds were determined using seven different. […]"}, "[2]": {"system": "HCV replicon cells", "test": "HCV FRET assay in HCV replicon cells", "type": "cell-based", "conditions": "Hepatitis C virus", "text": "FRET Assay Preparation. To perform the HCV FRET screening assay, 96-well cell culture plates were used. The FRET peptide (Anaspec, Inc.) (Taliani et al., Anal. Biochem. 1996, 240, 60-67) contains a fluorescence donor, EDANS, near one end of the peptide and an acceptor, DABCYL, near the other end. The fluorescence of the peptide is quenched by […] resonance energy transfer (RET) between the donor and the acceptor, but as the NS3 protease cleaves the peptide the products are released from RET quenching and the fluorescence of the donor becomes apparent. The assay reagent was made as follows: 5× cell Luciferase cell culture lysis reagent from Promega (#E153A) diluted to 1× with dH2O, NaCl added to 150 mM final, the FRET peptide diluted to 20 uM final from a 2 mM stock.\nTo prepare plates, HCV replicon cells, with or without a Renilla luciferase reporter gene, were trypsinized and placed into each well of a 96-well plate with titrated test compounds added in columns 3 through 12; columns 1 and 2 contained a control compound (HCV protease inhibitor), and the bottom row contained cells without compound. The plates were then placed in a CO2 incubator at 37° C.\nAssays. Subsequent to addition of the test compounds described above (FRET Assay Preparation), at various times the plate was removed and Alamar blue solution (Trek Diagnostics, #00-100) was added per well as a measure of cellular toxicity. After reading in a Cytoflour 4000 instrument (PE Biosystems), plates were rinsed with PBS and then used for FRET assay by the addition of 30 ul of the FRET peptide assay reagent described above (FRET Assay Preparation) per well. The plate was then placed into the Cytoflour 4000 instrument which had been set to 340 excite/490 emission, automatic mode for 20 cycles and the plate read in a kinetic mode. Typically, the signal to noise using an endpoint analysis after the reads was at least three-fold. Alternatively, after Alamar blue reading, plates were rinsed with PBS, 50 ul of DMEM (high glucose) without phenol red was added and plates were then used for luciferase assay using the Promega Dual-Glo Luciferase Assay System.\nCompound analysis was determined by quantification of the relative HCV replicon inhibition and the relative cytotoxicity values. To calculate cytoxicity values, the average Alamar Blue fluorescence signals from the control wells were set as 100% non-toxic. The individual signals in each of the compound test wells were then divided by the average control signal and multiplied by 100% to determine […]. To calculate the HCV replicon inhibition values, an average background value was obtained from the two wells containing the highest amount of HCV protease inhibitor at the end of the assay period. These numbers were similar to those obtained from naïve Huh-7 cells.\nThe background numbers were then subtracted from the average signal obtained from the control wells and this number was used as 100% activity. The individual signals in each of the compound test wells were then divided by the averaged control values after background subtraction and multiplied by 100% to determine percent activity. EC50 values for a protease inhibitor titration were calculated as the concentration which caused a 50% reduction in FRET or luciferase activity. The two numbers generated for the compound plate, percent cytoxicity and percent activity were used to determine compounds of interest for further analysis."}}, "data": [{"smiles": "COc1ccc2c(c1)C1CN(C(=O)N(C)C)CC1(C(=O)N1C[C@@H](C)O[C@@H](C)C1)Cn1c-2c(C2CCCCC2)c2ccc(C(=O)NS(=O)(=O)N(C)C)cc21", "note": "(mixture of isomers) [Example 11, rac-(3aR,14bR)-10-cyclohexyl-3a-(((2S,6R)-2,6-dimethyl-4-morpholinyl)carbonyl)-N^7-(dimethylsulfamoyl)-13-methoxy-N^2,N^2-dimethyl-1,3a,4,14b-tetrahydroindolo[2,1-c]pyrrolo[3,4-d][2]benzazepine-2,7(3H)-dicarboxamide]", "values": [{"measurement": "IC50", "setting": "[1]; reported as class", "value": "20 to 500", "unit": "nM"}, {"measurement": "EC50", "setting": "[2]; reported as class", "value": "20 to 500", "unit": "nM"}]}, {"smiles": "COc1ccc2c(c1)C1CN(C(C)CN(C)C)CC1(C(=O)N1C[C@@H](C)O[C@@H](C)C1)Cn1c-2c(C2CCCCC2)c2ccc(C(=O)NS(=O)(=O)N(C)C)cc21", "note": "(mixture of isomers) [Example 12, rac-(3aR,14bR)-10-cyclohexyl-2-(2-(dimethylamino)-1-methylethyl)-3a-(((2S,6R)-2,6-dimethyl-4-morpholinyl)carbonyl)-N-(dimethylsulfamoyl)-13-methoxy-1,2,3,3a,4,14b-hexahydroindolo[2,1-a]pyrrolo[3,4-d][2]benzazepine-7-carboxamide]", "values": [{"measurement": "IC50", "setting": "[1]; reported as class", "value": "20 to 500", "unit": "nM"}, {"measurement": "EC50", "setting": "[2]; reported as class", "value": "20 to 500", "unit": "nM"}]}, {"smiles": "COc1ccc2c(c1)C1CN(C(=O)CN(C)C)CC1(C(=O)N1C[C@@H](C)O[C@@H](C)C1)Cn1c-2c(C2CCCCC2)c2ccc(C(=O)NS(=O)(=O)N(C)C)cc21", "note": "(mixture of isomers) [Example 13, rac-(3aR,14bR)-10-Cyclohexyl-2-(N,N-dimethylglycyl)-3a-(((2S,6R)-2,6-dimethyl-4-morpholinyl)carbonyl)-N-(dimethylsulfamoyl)-13-methoxy-1,2,3,3a,4,14b-hexahydroindolo[2,1-a]pyrrolo[3,4-d][2]benzazepine-7-carboxamide]", "values": [{"measurement": "IC50", "setting": "[1]; reported as class", "value": "20 to 500", "unit": "nM"}, {"measurement": "EC50", "setting": "[2]; reported as class", "value": "20 to 500", "unit": "nM"}]}, {"smiles": "COc1ccc2c(c1)C1CN(C(=O)CN(C)C)CC1(C(=O)N(C)C)Cn1c-2c(C2CCCCC2)c2ccc(C(=O)NS(=O)(=O)N(C)C)cc21", "note": "(racemic) [Example 14, rac-(3aR,14bR)-10-Cyclohexyl-2-(N,N-dimethylglycyl)-N^7-(dimethylsulfamoyl)-13-methoxy-N^3a,N^3a-dimethyl-1,2,3,14b-tetrahydroindolo[2,1-a]pyrrolo[3,4-d][2]benzazepine-3a,7(4H)-dicarboxamide]", "values": [{"measurement": "IC50", "setting": "[1]", "value": 51, "unit": "nM"}, {"measurement": "EC50", "setting": "[2]", "value": 47, "unit": "nM"}]}, {"smiles": "COc1ccc2c(c1)C1CN(C(=O)C(=O)N(C)C)CC1(C(=O)N(C)C)Cn1c-2c(C2CCCCC2)c2ccc(C(=O)NS(=O)(=O)N(C)C)cc21", "note": "(racemic) [Example 15, rac-(3aR,14bR)-10-Cyclohexyl-2-((dimethylamino)(oxo)acetyl)-N^7-(dimethylsulfamoyl)-13-methoxy-N^3a,N^3a-dimethyl-1,2,3,14b-tetrahydroindolo[2,1-a]pyrrolo[3,4-d][2]benzazepine-3a,7(4H)-dicarboxamide]", "values": [{"measurement": "IC50", "setting": "[1]; reported as class", "value": "20 to 500", "unit": "nM"}, {"measurement": "EC50", "setting": "[2]; reported as class", "value": "20 to 500", "unit": "nM"}]}, {"smiles": "COc1ccc2c(c1)C1CN(C(=O)c3nccn3C)CC1(C(=O)N(C)C)Cn1c-2c(C2CCCCC2)c2ccc(C(=O)NS(=O)(=O)N(C)C)cc21", "note": "(racemic) [Example 16, rac-(3aR,14bR)-10-Cyclohexyl-N^7-(dimethylsulfamoyl)-13-methoxy-N^3a,N^3a-dimethyl-2-((1-methyl-1H-imidazol-2-yl)carbonyl)-1,2,3,14b-tetrahydroindolo[2,1-a]pyrrolo[3,4-d][2]benzazepine-3a,7(4H)-dicarboxamide]", "values": [{"measurement": "IC50", "setting": "[1]; reported as class", "value": "20 to 500", "unit": "nM"}, {"measurement": "EC50", "setting": "[2]; reported as class", "value": "20 to 500", "unit": "nM"}]}, {"smiles": "COc1ccc2c(c1)C1CN(C(C)CN(C)C)CC1(C(=O)N(C)C)Cn1c-2c(C2CCCCC2)c2ccc(C(=O)NS(=O)(=O)N(C)C)cc21", "note": "(racemic) [Example 17a, rac-(3aR,14bR)-10-cyclohexyl-2-(2-(dimethylamino)-1R-methylethyl)-N^7-(dimethylsulfamoyl)-13-methoxy-N^3a,N^3a-dimethyl-1,2,3,14b-tetrahydroindolo[2,1-a]pyrrolo[3,4-d][2]benzazepine-3a,7(4H)-dicarboxamide]", "values": [{"measurement": "IC50", "setting": "[1]; reported as class", "value": "20 to 500", "unit": "nM"}, {"measurement": "EC50", "setting": "[2]; reported as class", "value": "20 to 500", "unit": "nM"}]}, {"smiles": "COc1ccc2c(c1)C1CN(Cc3cncn3C)CC1(C(=O)N(C)C)Cn1c-2c(C2CCCCC2)c2ccc(C(=O)NS(=O)(=O)N(C)C)cc21", "note": "(racemic) [Example 18, rac-(3aR,14bR)-10-Cyclohexyl-N^7-(dimethylsulfamoyl)-13-methoxy-N^3a,N^3a-dimethyl-2-((1-methyl-1H-imidazol-5-yl)methyl)-1,2,3,14b-tetrahydroindolo[2,1-a]pyrrolo[3,4-d][2]benzazepine-3a,7(4H)-dicarboxamide]", "values": [{"measurement": "IC50", "setting": "[1]; reported as class", "value": "20 to 500", "unit": "nM"}, {"measurement": "EC50", "setting": "[2]; reported as class", "value": "20 to 500", "unit": "nM"}]}, {"smiles": "COc1ccc2c(c1)C1CN(C(=O)[C@@H]3CCCN3C)CC1(C(=O)N(C)C)Cn1c-2c(C2CCCCC2)c2ccc(C(=O)NS(=O)(=O)N(C)C)cc21", "note": "(mixture of isomers) [Example 19, rac-(3aR,14bR)-10-cyclohexyl-N^7-(dimethylsulfamoyl)-13-methoxy-N^3a,N^3a-dimethyl-2-(1-methyl-L-prolyl)-1,2,3,14b-tetrahydroindolo[2,1-a]pyrrolo[3,4-d][2]benzazepine-3a,7(4H)-dicarboxamide]", "values": [{"measurement": "IC50", "setting": "[1]", "value": 61, "unit": "nM"}, {"measurement": "EC50", "setting": "[2]", "value": 63, "unit": "nM"}]}]}
